Measurements from patent publication US12410160B2 (Gilead Sciences, Inc., priority 2021, dated 2025).

Columns and labels:
human KHK-C = human KHK-C (Homo sapiens (Human), UniProt P50053); assay: KHK Biochemical Assay (IC50), ADP-Glo, KHK-C; details: average of at least two separate assays
Summary of the method: (§1)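 His-tagged enzyme expressed in BL21 (DE3), Ni-NTA purified. Compounds, serially diluted 1:3 in DMSO, pre-incubated 30 min with enzyme in 50 mM Hepes pH 7.4, 140 mM KCl, 5 mM MgCl2, 0.01% Triton-X, then ATP and fructose added; 4 h at room temperature. ADP formation read by ADP-Glo luminescence.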

human KHK-A = human KHK-A (Homo sapiens (Human), UniProt P50053); assay: KHK Biochemical Assay (IC50), ADP-Glo, KHK-A; details: average of at least two separate assays
Summary of the method: as §1

[1] = target: KHK-C expressed in NRK-52E cells (Homo sapiens (Human), UniProt P50053); assay: KHK-C Cell-based Assay (EC50), NRK CTG, fructose-mediated ATP-depletion
Sequence of KHK-C expressed in NRK-52E cells (P50053 whole entry): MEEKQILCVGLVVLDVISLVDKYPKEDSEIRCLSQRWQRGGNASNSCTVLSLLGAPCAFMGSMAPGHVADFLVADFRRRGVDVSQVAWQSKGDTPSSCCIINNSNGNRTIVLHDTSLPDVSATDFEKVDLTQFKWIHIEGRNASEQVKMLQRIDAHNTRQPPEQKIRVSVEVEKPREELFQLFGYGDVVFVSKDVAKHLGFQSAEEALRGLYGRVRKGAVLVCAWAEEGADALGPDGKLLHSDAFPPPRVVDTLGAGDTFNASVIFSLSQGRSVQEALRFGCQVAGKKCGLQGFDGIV

Sequence of human KHK-A (P50053 other isoform, or with tags, fused parts or gaps): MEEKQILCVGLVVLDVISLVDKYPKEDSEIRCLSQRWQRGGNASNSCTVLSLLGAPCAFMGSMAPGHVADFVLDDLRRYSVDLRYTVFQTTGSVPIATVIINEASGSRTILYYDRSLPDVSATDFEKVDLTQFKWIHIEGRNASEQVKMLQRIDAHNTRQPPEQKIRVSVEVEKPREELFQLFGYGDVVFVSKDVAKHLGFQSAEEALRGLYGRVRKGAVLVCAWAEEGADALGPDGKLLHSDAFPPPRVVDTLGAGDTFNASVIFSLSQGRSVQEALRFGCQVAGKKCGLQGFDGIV
Sequence of human KHK-C (P50053 whole entry): as the sequence (P50053 whole entry) above

Compound | IC50 (human KHK-C; ADP-Glo) [nM] | IC50 (human KHK-A; ADP-Glo) [nM] | EC50 [1] [nM] | IC50 (human KHK-C) [nM] | IC50 (human KHK-A) [nM]
C[C@H]1CCN1c1nc2c(c(-c3ccc(CN4CC(O)C4)cc3)n1)CCC2 [Example 365, 1-[[4-[2-[(2S)-2-methylazetidin-1-yl]-6,7-dihydro-5H-cyclopenta[d]pyrimidin-4-yl]phenyl]methyl]azetidin-3-ol] | 19 | 27.2 | 29.3 |  | 
C[C@H]1CCN1c1nc2c(c(-c3ccc(CO)c(F)c3)n1)CCC2 [Example 370, [2-fluoro-4-[2-[(2S)-2-methylazetidin-1-yl]-6,7-dihydro-5H-cyclopenta[d]pyrimidin-4-yl]phenyl]methanol] | 81.7 | 76.3 | 117 |  | 
C[C@H]1[C@H](O)CN1c1nc2c(c(-c3ccc(CNS(C)(=O)=O)s3)n1)CCC2 [Example 377, N-[[5-[2-[(2S,3R)-3-hydroxy-2-methyl-azetidin-1-yl]-6,7-dihydro-5H-cyclopenta[d]pyrimidin-4-yl]-2-thienyl]methyl]methanesulfonamide] | 21.1 | 26.9 | 92.9 |  | 
Cc1nc2cc(-c3nc(N4CC[C@@H]4C)nc4c3CCC4)ccc2c(=O)[nH]1 [Example 387, 2-methyl-7-[2-[(2S)-2-methylazetidin-1-yl]-6,7-dihydro-5H-cyclopenta[d]pyrimidin-4-yl]-3H-quinazolin-4-one] | 9.9 | 5.6 | 19.6 |  | 
C[C@H]1[C@H](O)CN1c1nc2c(c(-c3ccc4cnc(O)cc4c3)n1)CCC2 [Example 388, 6-[2-[(2S,3R)-3-hydroxy-2-methyl-azetidin-1-yl]-6,7-dihydro-5H-cyclopenta[d]pyrimidin-4-yl]isoquinolin-3-ol] | 81.3 | 87.7 | 403 |  | 
C[C@H]1CCN1c1nc2c(c(-c3nc4ccccc4n3C)n1)CCC2 [Example 391, 1-methyl-2-[2-[(2S)-2-methylazetidin-1-yl]-6,7-dihydro-5H-cyclopenta[d]pyrimidin-4-yl]benzimidazole] | 915 | 2190 | 1810 |  | 
C[C@H]1CCN1c1nc(-c2ccc(C(N)=O)cc2)c2[nH]ncc2n1 [Example 396, (S)-4-(5-(2-methylazetidin-1-yl)-1H-pyrazolo[4,3-d]pyrimidin-7-yl)benzamide] |  |  | 2510 | 80 | 130
C[C@H]1CCN1c1nc2c(c(-c3ccc4c(c3)[C@]3(C[C@H]3c3nc[nH]n3)C(=O)N4)n1)CCC2 [Example 414, (1R,2R)-5′-(2-((S)-2-methylazetidin-1-yl)-6,7-dihydro-5H-cyclopenta[d]pyrimidin-4-yl)-2-(1H-1,2,4-triazol-3-yl)spiro[cyclopropane-1,3′-indolin]-2′-one] |  |  | > 5000 | 138 | 397
C[C@H]1CCN1c1nc2c(c(-c3ccc4c(c3)C(=O)NC(=O)C4)n1)CCC2 [Example 424, (S)-7-(2-(2-methylazetidin-1-yl)-6,7-dihydro-5H-cyclopenta[d]pyrimidin-4-yl)isoquinoline-1,3(2H,4H)-dione] |  |  | 3510 | 136 | 169
C[C@H]1CCN1c1nc2c(c(-c3ccc4[nH]c(=O)[nH]c(=O)c4c3)n1)CCC2 [Example 425, 6-[2-[(2S)-2-methylazetidin-1-yl]-6,7-dihydro-5H-cyclopenta[d]pyrimidin-4-yl]-1H-quinazoline-2,4-dione] |  |  | 122 | 31.4 | 21.7
C[C@H]1CCN1c1nc2c(c(-c3ccc4c(=O)[nH]c(=O)[nH]c4c3)n1)CCC2 [Example 426, 7-[2-[(2S)-2-methylazetidin-1-yl]-6,7-dihydro-5H-cyclopenta[d]pyrimidin-4-yl]-1H-quinazoline-2,4-dione] |  |  | 92.8 | 40.1 | 17.9
C[C@H]1CCN1c1nc2c(c(-c3ccc4c(c3)C3C(C4)C3C(=O)O)n1)CCC2 (stereo partly drawn) [Example 428, 3-[2-[(2S)-2-methylazetidin-1-yl]-6,7-dihydro-5H-cyclopenta[d]pyrimidin-4-yl]-1,1a,6,6a-tetrahydrocyclopropa[a]indene-1-carboxylic acid] |  |  | 387 | 41.3 | 38.4
C[C@H]1CCN1c1nc2c(c(-c3ccc4c(=O)[nH][nH]c(=O)c4c3)n1)CCC2 [Example 429, 6-[2-[(2S)-2-methylazetidin-1-yl]-6,7-dihydro-5H-cyclopenta[d]pyrimidin-4-yl]-2,3-dihydrophthalazine-1,4-dione] |  |  | 1730 | 41.6 | 48.6
NC(=O)c1ccc(-c2nc(N3CCC34CCC4)nc3c2CCC3)cc1 [Example 430, 4-[2-(1-azaspiro[3.3]heptan-1-yl)-6,7-dihydro-5H-cyclopenta[d]pyrimidin-4-yl]benzamide] |  |  | 3220 | 2120 | 3160
C[C@H]1CCN1c1nc2c(c(-c3cccc4c3CC3C(C(=O)O)C43)n1)CCC2 (stereo partly drawn) [Example 432, 5-[2-[(2S)-2-methylazetidin-1-yl]-6,7-dihydro-5H-cyclopenta[d]pyrimidin-4-yl]-1,1a,6,6a-tetrahydrocyclopropa[a]indene-1-carboxylic acid] |  |  | 2630 | 360 | 323
NC(=O)c1ccc(-c2nc(N3CCC34CCOC4)nc3c2CCC3)cc1 (stereo not drawn) [Example 434, 4-[2-(7-oxa-1-azaspiro[3.4]octan-1-yl)-6,7-dihydro-5H-cyclopenta[d]pyrimidin-4-yl]benzamide] |  |  | 3310 | 1620 | 2930
C[C@H]1CCN1c1nc2c(c(-c3cccc(C4CC(C(=O)O)C4)c3)n1)CCC2 (stereo partly drawn) [Example 439, 3-[3-[2-[(2S)-2-methylazetidin-1-yl]-6,7-dihydro-5H-cyclopenta[d]pyrimidin-4-yl]phenyl]cyclobutanecarboxylic acid] |  |  | 124 | 13.1 | 15.4
C[C@H]1CCN1c1nc2c(c(-c3ccnc(OC(F)F)c3)n1)CCC2 [Example 453, 4-[2-(difluoromethoxy)-4-pyridyl]-2-[(2S)-2-methylazetidin-1-yl]-6,7-dihydro-5H-cyclopenta[d]pyrimidine] |  |  | 1040 | 776 | 1010

Second part, the compound after the results:

IC50 (human KHK-C; ADP-Glo) [nM] | IC50 (human KHK-A; ADP-Glo) [nM] | EC50 [1] [nM] | IC50 (human KHK-C) [nM] | IC50 (human KHK-A) [nM] | Compound
86.5 | 54 | 75.4 |  |  | C[C@H]1CCN1c1nc2c(c(-c3ccc(CN4CCC4)cc3)n1)CCC2 [Example 366, 4-[4-(azetidin-1-ylmethyl)phenyl]-2-[(2S)-2-methylazetidin-1-yl]-6,7-dihydro-5H-cyclopenta[d]pyrimidine]
40.4 | 47.8 | 73.5 |  |  | C[C@H]1CCN1c1nc2c(c(-c3ccc(CO)cc3)n1)CCC2 [Example 374, [4-[2-[(2S)-2-methylazetidin-1-yl]-6,7-dihydro-5H-cyclopenta[d]pyrimidin-4-yl]phenyl]methanol]
18.2 | 30.3 | 84 |  |  | C[C@H]1CCN1c1nc2c(c(-c3ccc(CO)s3)n1)CCC2 [Example 375, [5-[2-[(2S)-2-methylazetidin-1-yl]-6,7-dihydro-5H-cyclopenta[d]pyrimidin-4-yl]-2-thienyl]methanol]
27.9 | 52.3 | 37.3 |  |  | C[C@H]1CCN1c1nc2c(c(-c3ccc(C(C)(C)O)s3)n1)CCC2 [Example 376, 2-[5-[2-[(2S)-2-methylazetidin-1-yl]-6,7-dihydro-5H-cyclopenta[d]pyrimidin-4-yl]-2-thienyl]propan-2-ol]
14.7 | 2.9 | 19.7 |  |  | C[C@H]1CCN1c1nc2c(c(-c3cc4c(=O)[nH]ccc4s3)n1)CCC2 [Example 384, 2-[2-[(2S)-2-methylazetidin-1-yl]-6,7-dihydro-5H-cyclopenta[d]pyrimidin-4-yl]-5H-thieno[3,2-c]pyridin-4-one]
2480 | 4220 | 3330 |  |  | C[C@H]1CCN1c1nc2c(c(-c3nc4cc(F)ccc4n3C)n1)CCC2 [Example 390, 5-fluoro-1-methyl-2-[2-[(2S)-2-methylazetidin-1-yl]-6,7-dihydro-5H-cyclopenta[d]pyrimidin-4-yl]benzimidazole]
 |  | 239 | 81.4 | 66.1 | C[C@H]1CCN1c1nc2c(c(-c3cc(C(N)=O)c4ccccc4c3)n1)CCC2 [Example 423, (S)-3-(2-(2-methylazetidin-1-yl)-6,7-dihydro-5H-cyclopenta[d]pyrimidin-4-yl)-1-naphthamide]
 |  | 711 | 513 | 808 | NC(=O)c1ccc(-c2nc(N3CC(O)[C@@H]3Cc3ccccc3)nc3c2CCC3)cc1 (stereo partly drawn) [Example 431, 4-[2-[(2S)-2-benzyl-3-hydroxy-azetidin-1-yl]-6,7-dihydro-5H-cyclopenta[d]pyrimidin-4-yl]benzamide]
 |  | > 5000 | 248 | 497 | C[C@H]1CCN1c1nc2c(c(-c3ccc(C4(C(=O)O)CC4)cc3)n1)CCC2 [Example 455, 1-[4-[2-[(2S)-2-methylazetidin-1-yl]-6,7-dihydro-5H-cyclopenta[d]pyrimidin-4-yl]phenyl]cyclopropanecarboxylic acid]
 |  | 13 | 0.5 | 11.4 | C[C@H]1[C@H](O)CN1c1nc(-c2ccc3c(c2)CCC32CCC(=O)N2)c2c(n1)C(F)(F)CC2 (stereo partly drawn) [Example 636, 5-(7,7-difluoro-2-((2S,3R)-3-hydroxy-2-methylazetidin-1-yl)-6,7-dihydro-5H-cyclopenta[d]pyrimidin-4-yl)-2,3-dihydrospiro[indene-1,2′-pyrrolidin]-5′-one]
